In US7767625B2 (dated 2010):

Work on C=Cc1c(NC(=O)c2cn(C)nc2C(F)(F)F)cccc1C(C)(C)C yielded a melting point of 118 to 119 °C.
